Experimental data reported in patent publication US7071168B2, “Anti-cancer compounds and methods related thereto” (The Regents of the University of Colorado, priority 1998, dated 2006).

System: SCLC strain SHP-77
Experiment: Colorimetric tetrazolium (MTT) assay for cell survival, SCLC strain SHP-77
Type: cell-based, human
Experimental: In general, Anti-bradykinin activity was determined by the classical guinea pig ileum assay and on Chinese hamster ovary (CHO) cells expressing cloned human bradykinin B2 receptors. Anti-tumor activity was determined on cultured human cancer cell lines using the standard tetrazolium (MTT) assay.
Cell growth and survival were measured by a rapid colorimetric assay based on the tetrazolium salt MTT (3-(4,5-dimethylthiazol-2-yl)-2,5-diphenyl tetrazolium bromide) (Mosmann, J Immunol. Methods 65: 55–63, 1983, with minor modifications). Briefly, 1,000 normal lung fibroblasts or normal epithelial BEAS-2B cells, 1,000 or 5,000 viable non-SCLC cells or 10,000 viable SCLC cells were plated in 100 μL of growth medium in 96-well flat-bottomed microtiter plates. Cells were incubated overnight to allow recovery. Compounds to be tested were added to the cells in triplicate in a range of concentrations and the cells were incubated at 37° C., 5% CO2, with 100% humidity. Control cells were treated in the same way without antagonists. […] Plates were incubated for 4 days, allowing sufficient time for cell replication and compound-induced cell death to occur. On day 5, 25 μL of a 2 mg/mL solution of MTT (Sigma) dissolved in RMPI-1640was added to each well. The plate was incubated for 4 h at 37° C. The supernate was removed and the blue formazan complex was dissolved by adding 100 μL of 0.02 N HCl in 75% isopropanol to all wells. Absorbance was immediately determined using a scanning multiwell plate reader. B9870 caused 50% cell death at a concentration of 0.15 μM under these conditions.

Row | Substance | MTT: ED50 for killing of SCLC strain SHP-77 in vitro (Table 1, SHP-77, MTT, 4 days) | MTT: ED50 for killing of SCLC strain SHP-77 in vitro (Table 3, cyclic peptides)
1 | DDD-(DArg-Arg-Aud-Pac-2Nal-DArg-NH2)2 [M710] | 1.7 µM | 
2 | DDD-(DArg-Arg-Eac-Ser-DF5F-PFF-Arg)2 [M944] | 6.7 µM | 
3 | DDD-(DArg-Arg-Eac-Ser-DIgl-PFF-Arg)2 [M932] | 6.0 µM | 
4 | DDD-(DArg-PFF-Arg-NH2)2 [M818] | 60 µM | 
5 | DDD-(DArg-hPhe-Arg-NH2)2 [M560] | 50 µM | 
6 | DDD-(Eac-Arg-Digl-Oic-Arg)2 [B10198-2] | 15 µM | 
7 | Dca-hPhe-Arg [M542] | 80 µM | 
8 | Dcg-Digl-Oic-Arg [B9490] | >60 µM | 
9 | Dcg-hPhe-Arg [M558] | 100 µM | 
10 | Dmac-DArg-Arg-Aud-Ser-D5F5-Oic-Arg [M968] | 15 µM | 
11 | F5bz-DArg-Arg-Aud-Ser-D5F5-Oic-Arg [M958] | 18 µM | 
12 | F5bz-F5F-Arg [M132] | 60 µM | 
13 | F5c-DArg-Arg-Aud-Pac-2Nal-Arg [M698] | 7.1 µM | 
14 | F5c-DArg-hPhe-Arg [M612] | Inact | 
15 | F5c-PCF-Arg [M714] | Inact | 
16 | F5c-PFF-Arg-NH2 [M812] | 15 µM | 
17 | F5c-p-APa-Arg [M216] | >180 µM | 
18 | Pac-hPhe-Arg [M752-2] | Inact | 
19 | Ppa-PFF-Arg [M814] | Inact | 
20 | Pya-hPhe-Arg [M540] | >100 µM | 
21 | c[Arg-DNMF-DTrp-Phe-DTrp-Leu] [B10306] |  | Inact
22 | c[DArg-Arg Add-DIgl-PFF-Arg] [M878] |  | 7 µM
23 | c[DArg-Arg-Eac-DF5F-Oic-Arg] [M906] |  | 45 µM
24 | c[DArg-Arg-Eac-DIgl-PFF-Arg] [M896] |  | 65 µM
25 | c[Suc-DArg-Arg-Eac-Ser-DIgl-PaF]-Arg [M924] |  | 37 µM
26 | α-DDD-(ApC-F5F-Arg)2 [M930] | Inact | 
27 | α-DDD-(K-DArg-Arg-Eac-Ser-DF5F-Oic-Arg)2 [M950] | 6.7 µM | 
28 | α-DDD-(c[Lys-DArg-Arg-Pro-Hyp-Gly-Thi-Ser-DF5F-Oic-Arg])2 [B10312] |  | 3.8 µM
29 | α-Lys-DArg-Arg-Pro-Hyp-Gly-Igl-Ser-DIgl-Oic-Arg Sub-Arg-DNMF-DTrp-Phe-DTrp-Leu [B9950] | 8 µM | 
30 | ζ-SUB-(ApC-F5F-Arg)2 [M926] | Inact | 
